# Measurements reported in patent US8247211B2, “Glycopeptide antibiotics” (American Cyanamid Company, priority 2001, dated 2012).
# Tests used:
# Experiment in all cases: In vitro antibacterial evaluation: minimum inhibitory concentration (MIC), broth dilution method
# Assay type in all cases: cell-based
# Staphylococcus sp. = conditions: broth dilution, 18 hours at 35° C.
# Procedure: (§1) The minimum inhibitory concentration (MIC), the lowest concentration of the antibiotic which inhibits growth of the test organism, is determined by the broth dilution method using Muller-Hinton II […] (Baltimore Biological Laboratories) following the recommendations of the National Committee for Clinical Laboratory Standards [Methods for dilution antimicrobial susceptibility tests for bacteria that grow aerobically, approved standard M7-A2, National Committee for Clinical Laboratory Standards, Villanova, Pa].
# (§2) An inoculum level of 5×10^5 CFU/mL, and a range of antibiotic concentrations (64-0.06 μg/mL) is used. […] The test organisms include a spectrum of Gram-positive bacteria comprised of Staphylococcus sp., Streptococcus sp. and Enterococcus sp. These organisms include recent clinical isolates that are resistant to methicillin, penicillin and/or vancomycin.
# Enterococcus sp. = conditions: for MIC Enterococcus faecalis (ATCC 29212): strain ATCC 29212; for MIC Enterococcus faecium (GC 2243): strain GC 2243; for MIC Enterococcus faecalis (GC 4552): strain GC 4552; for MIC Enterococcus faecalis (GC 4553): strain GC 4553; for MIC Enterococcus faecalis (GC 4554): strain GC 4554; for MIC Enterococcus faecium (GC 4556): strain GC 4556; for MIC Enterococcus faecium (GC 4557): strain GC 4557; for MIC Enterococcus avium (GC 4558): strain GC 4558; for MIC Enterococcus faecalis (GC 6189): strain GC 6189
# Procedure: as §1, §2
# Escherichia coli = system: Escherichia coli
# Procedure: as §1, §2
# Streptococcus sp. = system: Streptococcus sp.
# Procedure: as §1, §2
structure (smiles),measurement,setting,value
"COc1cccc(C2OC3C(OC4C(CO)OC(Oc5ccc(CC6NC(=O)C(C(C)c7ccccc7)NC(=O)CNC(=O)C(CO)NC(=O)C(C(O)C7CNC(=N)N7C7OC(CO)C(O)C(O)C7O)NC(=O)C(C(O)C7CNC(=N)N7)NC6=O)cc5)C(O)C4O)OC(CO)C(O)C3O2)c1 (single isomer, unassigned) [Example 137b, Cyclo[glycyl-β-methylphenylalanyl-O-[4-O-[2,3-O-(3-methoxybenzylidene)hexopyranosyl]-hexopyranosyl]tyrosyl-3-(2-iminoimidazolidin-4-yl)seryl-3-(3-hexopyranosyl-2-iminoimidazolidin-4-yl)serylseryl]]",MIC Coagulase Negative Staphylococcus (GC 4547),Staphylococcus sp.; 5×10^5 CFU/mL,8 µg/mL
same,MIC Coagulase Negative Staphylococcus (GC 4548),Staphylococcus sp.; 5×10^5 CFU/mL,4 µg/mL
same,MIC Coagulase Negative Staphylococcus (GC 4549),Staphylococcus sp.; 5×10^5 CFU/mL,8 µg/mL
same,MIC Coagulase Negative Staphylococcus (GC 4551),Staphylococcus sp.; 5×10^5 CFU/mL,8 µg/mL
same,MIC Coagulase Negative Staphylococcus (GC 6257),Staphylococcus sp.; 5×10^5 CFU/mL,4 µg/mL
same,MIC Staphylococcus aureus (ATCC 29213),Staphylococcus sp.; 5×10^5 CFU/mL,16 µg/mL
same,MIC Staphylococcus aureus (GC 1131),Staphylococcus sp.; 5×10^5 CFU/mL,16 µg/mL
same,MIC Staphylococcus aureus (GC 3051),Staphylococcus sp.; 5×10^5 CFU/mL,16 µg/mL
same,MIC Staphylococcus aureus (GC 3053),Staphylococcus sp.; 5×10^5 CFU/mL,16 µg/mL
same,MIC Staphylococcus aureus (GC 4541),Staphylococcus sp.; 5×10^5 CFU/mL,8 µg/mL
same,MIC Staphylococcus aureus (GC 4542),Staphylococcus sp.; 5×10^5 CFU/mL,16 µg/mL
same,MIC Staphylococcus aureus (GC 4544),Staphylococcus sp.; 5×10^5 CFU/mL,16 µg/mL
same,MIC Staphylococcus aureus (GC 4545),Staphylococcus sp.; 5×10^5 CFU/mL,16 µg/mL
same,MIC Staphylococcus aureus-SMITH (GC 4543),Staphylococcus sp.; 5×10^5 CFU/mL,8 µg/mL
same,MIC Staphylococcus haemolyticus (GC 4546),Staphylococcus sp.; 5×10^5 CFU/mL,8 µg/mL
same,MIC Staphylococcus aureus (ATCC 29213),Staphylococcus sp.; strain ATCC 29213,16 µg/mL
same,MIC Staphylococcus aureus (GC 1131),Staphylococcus sp.; strain GC 1131,16 µg/mL
same,MIC Staphylococcus aureus (GC 3051),Staphylococcus sp.; strain GC 3051,16 µg/mL
same,MIC Staphylococcus aureus (GC 3053),Staphylococcus sp.; strain GC 3053,16 µg/mL
same,MIC Staphylococcus aureus (GC 4541),Staphylococcus sp.; strain GC 4541,8 µg/mL
same,MIC Staphylococcus aureus (GC 4542),Staphylococcus sp.; strain GC 4542,16 µg/mL
same,MIC Staphylococcus aureus-SMITH (GC 4543),Staphylococcus sp.; strain GC 4543,8 µg/mL
same,MIC Staphylococcus aureus (GC 4544),Staphylococcus sp.; strain GC 4544,16 µg/mL
same,MIC Staphylococcus aureus (GC 4545),Staphylococcus sp.; strain GC 4545,16 µg/mL
same,MIC Staphylococcus haemolyticus (GC 4546),Staphylococcus sp.; strain GC 4546,8 µg/mL
same,MIC Coagulase Negative Staphylococcus (GC 4547),Staphylococcus sp.; strain GC 4547,8 µg/mL
same,MIC Coagulase Negative Staphylococcus (GC 4548),Staphylococcus sp.; strain GC 4548,4 µg/mL
same,MIC Coagulase Negative Staphylococcus (GC 4549),Staphylococcus sp.; strain GC 4549,8 µg/mL
same,MIC Coagulase Negative Staphylococcus (GC 4551),Staphylococcus sp.; strain GC 4551,8 µg/mL
same,MIC Coagulase Negative Staphylococcus (GC 6257),Staphylococcus sp.; strain GC 6257,4 µg/mL
same,MIC Enterococcus faecalis (ATCC 29212),Enterococcus sp.,32 µg/mL
same,MIC Enterococcus faecalis (GC 2242),Enterococcus sp.; strain GC 2242,32 µg/mL
same,MIC Enterococcus faecium (GC 2243),Enterococcus sp.,64 µg/mL
same,MIC Enterococcus faecalis (GC 2691),Enterococcus sp.; strain GC 2691,32 µg/mL
same,MIC Enterococcus faecalis (GC 3059),Enterococcus sp.; strain GC 3059,64 µg/mL
same,MIC Enterococcus faecalis (GC 4552),Enterococcus sp.,32 µg/mL
same,MIC Enterococcus faecalis (GC 4553),Enterococcus sp.,32 µg/mL
same,MIC Enterococcus faecalis (GC 4554),Enterococcus sp.,64 µg/mL
same,MIC Enterococcus faecium (GC 4556),Enterococcus sp.,32 µg/mL
same,MIC Enterococcus faecium (GC 4557),Enterococcus sp.,8 µg/mL
same,MIC Enterococcus avium (GC 4558),Enterococcus sp.,32 µg/mL
same,MIC Enterococcus faecalis (GC 6189),Enterococcus sp.,32 µg/mL
same,MIC Escherichia coli (ATCC 25922),Escherichia coli; strain ATCC 25922,>64 µg/mL
same,MIC Escherichia coli (GC 4559),Escherichia coli; strain GC 4559,>64 µg/mL
same,MIC Escherichi coli (GC 4560),Escherichia coli; strain GC 4560,4 µg/mL
same,MIC Streptococcus pneumoniae (ATCC 6301),Streptococcus sp.; strain ATCC 6301,2 µg/mL
same,MIC Streptococcus pneumoniae (GC 1894),Streptococcus sp.; strain GC 1894,1 µg/mL
same,MIC Streptococcus pyogenes (GC 4563),Streptococcus sp.; strain GC 4563,4 µg/mL
same,MIC Streptococcus agalactiae (GC 4564),Streptococcus sp.; strain GC 4564,4 µg/mL
same,MIC Streptococcus pneumoniae (GC 4565),Streptococcus sp.; strain GC 4565,2 µg/mL
"CC(c1ccccc1)C1NC(=O)CNC(=O)C(CO)NC(=O)C(C(O)C2CN(Cc3ccccc3)C(=NCc3ccccc3)N2C2OC(CO)C(O)C(O)C2O)NC(=O)C(C(O)C2CN(Cc3ccccc3)C(=NCc3ccccc3)N2Cc2ccccc2)NC(=O)C(Cc2ccc(OC3OC(CO)C(OC4OC5COC6(OC5C(O)C4O)C4CC5CC(C4)CC6C5)C(O)C3O)cc2)NC1=O (stereo not drawn) [Example 79, Cyclo[glycyl-β-methylphenylalanyl-O-[4-O-[4,6-O-(2-adamantylidene)hexopyranosyl]hexopyranosyl]tyrosyl-3-[1,3-dibenzyl-2-(benzylimino)imidazolidin-4-yl]seryl-3-[1-benzyl-2-(benzylimino)-3-hexopyranosylimidazolidin-4-yl]serylseryl]]",MIC Coagulase Negative Staphylococcus (GC 4547),Staphylococcus sp.,4 µg/mL
same,MIC Coagulase Negative Staphylococcus (GC 4548),Staphylococcus sp.,4 µg/mL
same,MIC Coagulase Negative Staphylococcus (GC 4549),Staphylococcus sp.,2 µg/mL
same,MIC Coagulase Negative Staphylococcus (GC 4551),Staphylococcus sp.,4 µg/mL
same,MIC Coagulase Negative Staphylococcus (GC 6257),Staphylococcus sp.,4 µg/mL
same,MIC Staphylococcus aureus (ATCC 29213),Staphylococcus sp.,4 µg/mL
same,MIC Staphylococcus aureus (GC 1131),Staphylococcus sp.,8 µg/mL
same,MIC Staphylococcus aureus (GC 3051),Staphylococcus sp.,4 µg/mL
same,MIC Staphylococcus aureus (GC 3053),Staphylococcus sp.,4 µg/mL
same,MIC Staphylococcus aureus (GC 4541),Staphylococcus sp.,4 µg/mL
same,MIC Staphylococcus aureus (GC 4542),Staphylococcus sp.,4 µg/mL
same,MIC Staphylococcus aureus (GC 4544),Staphylococcus sp.,8 µg/mL
same,MIC Staphylococcus aureus (GC 4545),Staphylococcus sp.,4 µg/mL
same,MIC Staphylococcus aureus SMITH (GC 4543),Staphylococcus sp.,4 µg/mL
same,MIC Staphylococcus haemolyticus (GC 4546),Staphylococcus sp.,4 µg/mL
same,MIC Staphylococcus aureus-SMITH (GC 4543),Staphylococcus sp.; strain SMITH GC 4543,4 µg/mL
same,MIC Enterococcus faecalis (GC 2242),"Enterococcus sp.; Enterococcus faecalis (GC 2242), broth dilution, 18 hours at 35° C.",16 µg/mL
same,MIC Enterococcus faecalis (GC 2691),"Enterococcus sp.; Enterococcus faecalis (GC 2691), broth dilution, 18 hours at 35° C.",8 µg/mL
same,MIC Enterococcus faecalis (GC 3059),"Enterococcus sp.; Enterococcus faecalis (GC 3059), broth dilution, 18 hours at 35° C.",32 µg/mL
same,MIC Enterococcus faecalis (ATCC 29212),Enterococcus sp.,8 µg/mL
same,MIC Enterococcus faecalis (GC 2242),Enterococcus sp.; strain GC 2242,16 µg/mL
same,MIC Enterococcus faecium (GC 2243),Enterococcus sp.,8 µg/mL
same,MIC Enterococcus faecalis (GC 2691),Enterococcus sp.; strain GC 2691,8 µg/mL
same,MIC Enterococcus faecalis (GC 3059),Enterococcus sp.; strain GC 3059,32 µg/mL
same,MIC Enterococcus faecalis (GC 4552),Enterococcus sp.,32 µg/mL
same,MIC Enterococcus faecalis (GC 4553),Enterococcus sp.,4 µg/mL
same,MIC Enterococcus faecalis (GC 4554),Enterococcus sp.,16 µg/mL
same,MIC Enterococcus faecium (GC 4556),Enterococcus sp.,32 µg/mL
same,MIC Enterococcus faecium (GC 4557),Enterococcus sp.,4 µg/mL
same,MIC Enterococcus avium (GC 4558),Enterococcus sp.,2 µg/mL
same,MIC Enterococcus faecalis (GC 6189),Enterococcus sp.,8 µg/mL
same,MIC Escherichia coli (GC 4560),Escherichia coli; strain GC 4560,2 µg/mL
same,MIC Streptococcus agalactiae (GC 4564),"Streptococcus sp.; Streptococcus agalactiae (GC 4564), broth dilution, 18 hours at 35° C.",4 µg/mL
same,MIC Streptococcus pneumoniae (ATCC 6301),"Streptococcus sp.; Streptococcus pneumoniae (ATCC 6301), broth dilution, 18 hours at 35° C.",4 µg/mL
same,MIC Streptococcus pneumoniae (GC 1894),"Streptococcus sp.; Streptococcus pneumoniae (GC 1894), broth dilution, 18 hours at 35° C.",8 µg/mL
same,MIC Streptococcus pneumoniae (GC 4565),"Streptococcus sp.; Streptococcus pneumoniae (GC 4565), broth dilution, 18 hours at 35° C.",8 µg/mL
same,MIC Streptococcus pyogenes (GC 4563),"Streptococcus sp.; Streptococcus pyogenes (GC 4563), broth dilution, 18 hours at 35° C.",4 µg/mL
same,MIC Streptococcus pneumoniae (ATCC 6301),Streptococcus sp.; strain ATCC 6301,4 µg/mL
same,MIC Streptococcus pneumoniae (GC 1894),Streptococcus sp.; strain GC 1894,8 µg/mL
same,MIC Streptococcus pyogenes (GC 4563),Streptococcus sp.; strain GC 4563,4 µg/mL
same,MIC Streptococcus agalactiae (GC 4564),Streptococcus sp.; strain GC 4564,4 µg/mL
same,MIC Streptococcus pneumoniae (GC 4565),Streptococcus sp.; strain GC 4565,8 µg/mL
